Reference: ChEMBL document CHEMBL3997829, “Discovery of novel substituted octahydropyrrolo[3,4-c]pyrroles as dual orexin receptor antagonists for insomnia treatment” (Bioorg Med Chem Lett, 2017)
Converted amounts (≈) assume the structure as drawn.

Key:
[1] = molecular target: T1, Orexin/Hypocretin receptor type 1 (Homo sapiens, UniProt O43613); experiment: Antagonist activity at human orexin 1 receptor expressed in HEK293 cells assessed as inhibition of orexin-induced calcium mobilization after 60 mins by FLIPR assay; type: functional, cell-based
T1 sequence (O43613 whole entry): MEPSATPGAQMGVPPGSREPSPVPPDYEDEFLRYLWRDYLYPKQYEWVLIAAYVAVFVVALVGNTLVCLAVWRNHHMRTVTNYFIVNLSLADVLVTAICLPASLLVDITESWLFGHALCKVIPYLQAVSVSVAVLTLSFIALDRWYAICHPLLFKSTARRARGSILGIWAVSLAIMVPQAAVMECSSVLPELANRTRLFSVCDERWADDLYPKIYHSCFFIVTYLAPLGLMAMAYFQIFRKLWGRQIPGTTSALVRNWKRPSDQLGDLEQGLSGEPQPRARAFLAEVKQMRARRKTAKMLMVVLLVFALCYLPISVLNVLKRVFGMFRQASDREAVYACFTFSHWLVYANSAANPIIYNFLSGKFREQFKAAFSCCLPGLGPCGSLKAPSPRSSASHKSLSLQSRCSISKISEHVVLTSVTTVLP

Orexin receptor type 2 = molecular target: T2, Orexin receptor type 2 (Homo sapiens, UniProt O43614); experiment: Antagonist activity at human orexin 2 receptor expressed in HEK293 cells assessed as inhibition of orexin-induced calcium mobilization after 60 mins by FLIPR assay; type: functional, cell-based
T2 sequence (O43614 whole entry): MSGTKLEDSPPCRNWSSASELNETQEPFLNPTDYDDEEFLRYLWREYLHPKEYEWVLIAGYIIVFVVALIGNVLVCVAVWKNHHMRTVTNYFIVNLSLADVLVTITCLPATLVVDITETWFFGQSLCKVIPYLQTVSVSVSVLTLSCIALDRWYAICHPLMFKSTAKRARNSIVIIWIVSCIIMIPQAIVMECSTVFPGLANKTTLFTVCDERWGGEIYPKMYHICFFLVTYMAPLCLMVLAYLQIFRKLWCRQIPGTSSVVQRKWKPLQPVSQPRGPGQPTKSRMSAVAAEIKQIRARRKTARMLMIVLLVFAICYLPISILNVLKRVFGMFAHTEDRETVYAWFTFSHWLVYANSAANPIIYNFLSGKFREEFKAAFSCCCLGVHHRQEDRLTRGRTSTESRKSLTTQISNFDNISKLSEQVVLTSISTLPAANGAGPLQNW

Rattus norvegicus [2] = experiment: Sleep promoting activity in Sprague-Dawley rat assessed as decrease in active wake time at 30 mg/kg, po measured over 2 hrs by electroencephalogram method; type: functional
Rattus norvegicus [3] = experiment: Sleep promoting activity in po dosed Sprague-Dawley rat assessed as decrease in active wake time measured over 2 hrs by electroencephalogram method; type: functional, organism-based
[4] = Thermodynamic solubility of the compound in phosphate buffer at pH 7.4 by HPLC method; type: physicochemical; conditions: read-out: Therm_solubility
[5] = Plasma concentration in Sprague-Dawley rat at 10 mg/kg, po at 0.3 hrs; type: ADME, organism-based
Rattus norvegicus [6] = experiment: Sleep promoting activity in po dosed Sprague-Dawley rat assessed as increase in slow wave sleep time measured over 2 hrs by electroencephalogram method; type: functional, organism-based
Brain [7] = experiment: Drug uptake in Sprague-Dawley rat brain at 10 mg/kg, po at 4 hrs; type: ADME, organism-based; conditions: in vivo
[8] = Ratio of drug level in brain to plasma in Sprague-Dawley rat at 10 mg/kg, po at 0.5 hrs; type: ADME, organism-based; conditions: read-out: BPR
[9] = Oral bioavailability in Sprague-Dawley rat at 15 mg/kg; type: ADME, organism-based; conditions: in vivo
Rattus norvegicus [10] = experiment: Sleep promoting activity in Sprague-Dawley rat assessed as decrease in active wake time at 90 mg/kg, po measured over 2 hrs by electroencephalogram method; type: functional
Brain [11] = experiment: Drug uptake in Sprague-Dawley rat brain at 10 mg/kg, po at 1 hr; type: ADME, organism-based; conditions: in vivo
Rattus norvegicus [12] = experiment: Sleep promoting activity in Sprague-Dawley rat assessed as increase in slow wave sleep time at 30 mg/kg, po measured over 2 hrs by electroencephalogram method; type: functional
[13] = Ratio of drug level in brain to plasma in Sprague-Dawley rat at 10 mg/kg, po at 1 hr; type: ADME, organism-based; conditions: read-out: BPR
Rattus norvegicus [14] = experiment: Sleep promoting activity in Sprague-Dawley rat assessed as effect on rapid eye movement sleep time at 30 mg/kg, po measured over 2 hrs by electroencephalogram method; type: functional
[15] = AUC in Sprague-Dawley rat at 15 mg/kg, po; type: ADME, organism-based; conditions: in vivo
[16] = Plasma concentration in Sprague-Dawley rat at 10 mg/kg, po at 4 hrs; type: ADME, organism-based
Rattus norvegicus [17] = experiment: Sleep promoting activity in Sprague-Dawley rat assessed as effect on rapid eye movement sleep time at 90 mg/kg, po measured over 2 hrs by electroencephalogram method; type: functional
[18] = Cmax in Sprague-Dawley rat at 15 mg/kg, po; type: ADME, organism-based; set-up: dose 15 mg/kg, route oral; conditions: in vivo
[19] = Half life in Sprague-Dawley rat at 2 mg/kg, iv; type: ADME, organism-based; conditions: in vivo
Brain [20] = experiment: Drug uptake in Sprague-Dawley rat brain at 10 mg/kg, po at 0.3 hrs; type: ADME, organism-based; conditions: in vivo
[21] = Tmax in Sprague-Dawley rat at 15 mg/kg, po; type: ADME, organism-based; conditions: in vivo
[22] = Clearance in Sprague-Dawley rat at 2 mg/kg, iv; type: ADME, organism-based; conditions: in vivo
[23] = Plasma concentration in Sprague-Dawley rat at 10 mg/kg, po at 1 hr; type: ADME, organism-based
Rattus norvegicus [24] = experiment: Sleep promoting activity in Sprague-Dawley rat assessed as increase in slow wave sleep time at 90 mg/kg, po measured over 2 hrs by electroencephalogram method; type: functional
[25] = Ratio of drug level in brain to plasma in Sprague-Dawley rat at 10 mg/kg, po at 4 hrs; type: ADME, organism-based; conditions: read-out: BPR
[26] = molecular target: Voltage-gated inwardly rectifying potassium channel KCNH2 (Homo sapiens, UniProt Q12809); experiment: Inhibition of human ERG
Voltage-gated inwardly rectifying potassium channel KCNH2, sequence (Q12809 whole entry): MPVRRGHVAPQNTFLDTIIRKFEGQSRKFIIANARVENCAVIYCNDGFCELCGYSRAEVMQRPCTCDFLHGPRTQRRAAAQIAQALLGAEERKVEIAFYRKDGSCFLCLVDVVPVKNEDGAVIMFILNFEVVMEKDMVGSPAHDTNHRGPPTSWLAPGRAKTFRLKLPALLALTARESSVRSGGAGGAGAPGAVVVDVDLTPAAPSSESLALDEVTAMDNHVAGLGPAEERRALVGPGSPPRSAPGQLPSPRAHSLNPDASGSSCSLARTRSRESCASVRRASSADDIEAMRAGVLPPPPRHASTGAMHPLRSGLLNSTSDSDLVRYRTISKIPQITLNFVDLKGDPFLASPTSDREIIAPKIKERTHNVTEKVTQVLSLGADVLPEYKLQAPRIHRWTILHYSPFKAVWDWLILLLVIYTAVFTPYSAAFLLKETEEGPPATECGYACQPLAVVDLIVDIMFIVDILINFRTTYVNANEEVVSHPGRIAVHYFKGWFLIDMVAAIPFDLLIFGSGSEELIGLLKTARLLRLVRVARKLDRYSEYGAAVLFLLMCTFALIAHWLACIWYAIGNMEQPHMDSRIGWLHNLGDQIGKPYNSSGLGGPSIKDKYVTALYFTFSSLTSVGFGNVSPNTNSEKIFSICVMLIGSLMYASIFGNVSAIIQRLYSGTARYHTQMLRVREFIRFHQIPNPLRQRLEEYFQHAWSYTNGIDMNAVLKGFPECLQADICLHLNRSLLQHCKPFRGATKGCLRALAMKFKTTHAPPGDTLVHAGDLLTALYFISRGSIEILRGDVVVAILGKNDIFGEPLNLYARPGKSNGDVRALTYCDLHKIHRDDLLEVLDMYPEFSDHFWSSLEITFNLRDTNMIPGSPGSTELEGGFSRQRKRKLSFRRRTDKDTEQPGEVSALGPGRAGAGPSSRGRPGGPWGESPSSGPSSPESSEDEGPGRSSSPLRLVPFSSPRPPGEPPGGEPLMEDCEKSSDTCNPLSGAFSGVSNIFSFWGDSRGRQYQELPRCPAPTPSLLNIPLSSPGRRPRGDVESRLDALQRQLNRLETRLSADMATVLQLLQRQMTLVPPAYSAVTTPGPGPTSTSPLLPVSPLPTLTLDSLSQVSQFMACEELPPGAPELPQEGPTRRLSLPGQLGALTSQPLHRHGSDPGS

Cc1ccc(-n2nccn2)c(C(=O)N2C[C@@H]3CN(c4nc(C)c(C)c(C)n4)C[C@@H]3C2)c1
IC50 [1]: > 10000 nM | IC50 (Orexin receptor type 2): 4850 nM

Cc1ccc(-n2nccn2)c(C(=O)N2C[C@@H]3CN(c4ncnc5ccccc45)C[C@@H]3C2)c1
IC50 [1]: > 10000 nM | IC50 (Orexin receptor type 2): 1680 nM

O=C(c1cc(F)ccc1-n1nccn1)N1C[C@@H]2CN(c3nc4cc(Cl)ccc4o3)C[C@@H]2C1
IC50 [1]: 1960 nM | IC50 (Orexin receptor type 2): 791 nM

Cc1ccc(-n2nccn2)c(C(=O)N2C[C@@]3(C)CN(c4nc5cc(Cl)ccc5o4)C[C@@]3(C)C2)c1
IC50 [1]: 1890 nM | IC50 (Orexin receptor type 2): 5990 nM

Cc1ccc(-n2nccn2)c(C(=O)N2C[C@H]3CN(Cc4nc5cc(Cl)ccc5o4)C[C@H]3C2)c1
IC50 [1]: 3240 nM | IC50 (Orexin receptor type 2): 1820 nM

O=C(c1ccccc1-n1nccn1)N1C[C@@H]2CN(c3nc4cc(Cl)ccc4o3)C[C@@H]2C1
IC50 [1]: 489 nM | IC50 (Orexin receptor type 2): 238 nM

Cc1ccc(-n2nccn2)c(C(=O)N2CC3CN(c4nc5cc(Cl)ccc5o4)CC3(C)C2)c1 (stereo not given)
IC50 [1]: 736 nM | IC50 (Orexin receptor type 2): 1090 nM

Cc1ccc(-n2nccn2)c(C(=O)N2C[C@@H]3CN(c4nc5cc(C(F)(F)F)ccc5o4)C[C@@H]3C2)c1
IC50 [1]: 1780 nM | IC50 (Orexin receptor type 2): 508 nM

Cc1ccc(-n2nccn2)c(C(=O)N2C[C@@H]3CN(c4nc5cc(Cl)ccc5s4)C[C@@H]3C2)c1
IC50 [1]: 327 nM | IC50 (Orexin receptor type 2): 1190 nM

O=C(c1cc(C(F)(F)F)ccc1-n1nccn1)N1C[C@@H]2CN(c3nc4cc(Cl)ccc4o3)C[C@@H]2C1
IC50 [1]: 5020 nM | IC50 (Orexin receptor type 2): 1040 nM

Cc1ccc(-n2nccn2)c(C(=O)N2C[C@@H]3CN(c4nc5ccccc5o4)C[C@@H]3C2)c1
Time (Rattus norvegicus [2]): 25.7 min | Activity (Rattus norvegicus [3]): Dose-dependent effect | solubility thermodynamic [4]: 41 µM (≈ 17 µg/mL) | concentration at 0.3 h [5]: 8800 nM | Activity (Rattus norvegicus [6]): Dose-dependent effect | Drug uptake (Brain [7]): 22 nmol/kg | IC50 [1]: 303 nM | Kp at 0.5 h [8]: 0.13 | bioavailability [9]: 23% | Time (Rattus norvegicus [10]): 41.1 min | Drug uptake (Brain [11]): 429 nmol/kg | Time (Rattus norvegicus [12]): 25.9 min | Kp at 1 h [13]: 0.12 | Time (Rattus norvegicus [14]): -0.1 min | AUC [15]: 20.3 µM·h | concentration at 4 h [16]: 341 nM | IC50 (Orexin receptor type 2): 178 nM | Time (Rattus norvegicus [17]): 4.3 min | Cmax [18]: 10600 nM | half-life [19]: 1.9 h | Drug uptake (Brain [20]): 1134 nmol/kg | Tmax [21]: 0.25 h | clearance [22]: 10 mL/min/kg | concentration at 1 h [23]: 3470 nM | Time (Rattus norvegicus [24]): 36.9 min | Kp at 4 h [25]: 0.06

Cc1ccc(-n2nccn2)c(C(=O)N2C[C@@]3(F)CN(c4nc5cc(Cl)ccc5o4)C[C@@]3(F)C2)c1
IC50 [1]: 759 nM | IC50 [26]: > 30000 nM | IC50 (Orexin receptor type 2): 639 nM

Cc1ccc(-n2nccn2)c(C(=O)N2C[C@@H]3CN(c4nc5cc(F)ccc5o4)C[C@@H]3C2)c1
solubility thermodynamic [4]: < 2 µM | concentration at 0.3 h [5]: 1260 nM | Drug uptake (Brain [7]; BLD = below limit of detection): Bld | IC50 [1]: 293 nM | Kp at 0.5 h [8]: 0.06 | Drug uptake (Brain [11]): 42 nmol/kg | Kp at 1 h [13]: 0.05 | concentration at 4 h [16]: 77 nM | IC50 (Orexin receptor type 2): 131 nM | Drug uptake (Brain [20]): 74 nmol/kg | concentration at 1 h [23]: 859 nM

Cc1ccc(-n2nccn2)c(C(=O)N2C[C@@H]3CN(c4nc5cc(C)ccc5o4)C[C@@H]3C2)c1
IC50 [1]: 113 nM | IC50 (Orexin receptor type 2): 211 nM

Cc1ccc(-n2nccn2)c(C(=O)N2C[C@@]3(F)CN(c4nc5ccccc5o4)C[C@@]3(F)C2)c1
IC50 [1]: 908 nM | IC50 [26]: > 30000 nM | IC50 (Orexin receptor type 2): 575 nM
